pEC50: −log10 of the molar value. Where two headings read alike, the source gives them in different places.

This experiment deals with recombinant human GPR52 (Homo sapiens, UniProt Q9Y2T5). Briefly: HTRF cAMP assay, GPR52 activity (Example A). In kind it is cell-based. The protocol: Compounds of Formula I were assessed for their ability to modulate GPR52 activity. HTRF CAMP assays were performed using a commercially available assay kit (CAMP Gs HiRange HTRF®, CisBio). Controls and compounds were solubilized in DMSO and 62.5 nanoliters of the diluted compounds were transferred into 384-well NBS assay plates via acoustic or precision low-volume dispensing. Compounds were further diluted to 1× with the addition of 20,000 cells per well. Flp-In™—CHO cells that stably express recombinant human GPR52 were used in the assay.
Cells were harvested with cell stripper and resuspended in stimulation buffer. After thirty minutes incubation at room temperature, detection reagents were added to each well. Plates were then incubated for an additional 30 minutes at room temperature. CAMP produced by the cells during the first incubation period competes with d2-labeled CAMP for binding to an anti-cAMP monoclonal antibody labeled with europium cryptate. The measured signal was inversely proportional to the concentration of cAMP produced by the cells and this signal was quantified using a PHERAstar® multi-mode plate reader.
Dose-response curves were generated from the HTRF counts that have been transformed based on a CAMP referenced curve, and then normalized to the positive control. EC50 values were obtained using a nonlinear regression curve-fitting program. […] The Emax (Table 13) is the maximum amount of cAMP (nM) produced by incubation of the cells with 10 μM or 31.6 μM of a test compound. The compound is defined by the top plateau of the sigmoid curve fit. The curve is then normalized to a control compound, in this case 4-(3-(3-fluoro-5-(trifluoromethyl)benzyl)-5-methyl-4,5-dihydro-1H-1,2,4-triazol-1-yl)-2-methylbenzamide (Tokumaru, K., et al., “Design, synthesis, and pharmacological evaluation of 4-azolyl-benzamide derivatives as novel GPR52 agonists”, Bioorganic & Medicinal Chemistry, Volume 25, Issue 12, June 2017, pages 3098-3115), and expressed as a percentage of the Emax of that control compound.
Background: TR-FRET usually uses a lanthanide donor and a delayed reading to cut background.

Where [1] appears, read: average EC50 (n=1 to 15), Flp-In-CHO cells stably expressing recombinant human GPR52, cAMP HTRF, read-out: EC50 (N=).
The mark [2] stands for this setting: maximum cAMP at 10 μM or 31.6 μM test compound, as percentage of Emax of control compound 4-(3-(3-fluoro-5-(trifluoromethyl)benzyl)-5-methyl-4,5-dihydro-1H-1,2,4-triazol-1-yl)-2-methylbenzamide.

Chain of recombinant human GPR52 (Q9Y2T5 whole entry): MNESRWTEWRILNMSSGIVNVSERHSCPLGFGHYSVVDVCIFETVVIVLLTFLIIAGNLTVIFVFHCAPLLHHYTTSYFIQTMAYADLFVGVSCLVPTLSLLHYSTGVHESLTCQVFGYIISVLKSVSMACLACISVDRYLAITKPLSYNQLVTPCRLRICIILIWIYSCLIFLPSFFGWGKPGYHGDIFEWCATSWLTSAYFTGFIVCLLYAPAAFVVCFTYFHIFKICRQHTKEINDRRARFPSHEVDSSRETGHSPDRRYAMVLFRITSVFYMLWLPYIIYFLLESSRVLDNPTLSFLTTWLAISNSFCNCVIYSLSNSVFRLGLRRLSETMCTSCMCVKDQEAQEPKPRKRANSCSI

`CCc1cc(-c2cc(Oc3ccc4c(c3)c(C)nn4C)ccn2)ccc1C(N)=O` [Example 57, 4-(4-((1,3-dimethyl-1H-indazol-5-yl)oxy)pyridin-2-yl)-2-ethylbenzamide]: the pEC50 under setting [1] is 7.00 to 7.60. Also, the Emax under setting [2] came out at 104%.
With `CCc1cc(-c2cc(Oc3cnc4c(F)c(F)ccc4c3)ccn2)ccc1C(N)=O` [Example 115, 4-(4-((7,8-difluoroquinolin-3-yl)oxy)pyridin-2-yl)-2-ethylbenzamide], the pEC50 under setting [1] is 6.00 to 7.00. Also, the maximum response (Emax) under setting [2] was 100%.
The corresponding values for `CCc1cc(-c2cc(Oc3cnc4c(C)nn(C)c4c3)ccn2)ccc1C(=O)NC` [Example 60, 4-(4-((1,3-dimethyl-1H-pyrazolo[4,3-b]pyridin-6-yl)oxy)pyridin-2-yl)-2-ethyl-N-methylbenzamide] are 6.00 to 7.00 and 102%.
The matching figures for `CCc1cc(-c2cc(Oc3cnc4c(F)nn(C)c4c3)ccn2)ccc1C(N)=O` [Example 131, 2-ethyl-4-(4-((3-fluoro-1-methyl-1H-pyrazolo[4,3-b]pyridin-6-yl)oxy)pyridin-2-yl)benzamide]: 6.00 to 7.00 and 114%.
The matching figures for `Cc1cc(-c2cc(Oc3ccc4ncc(Cl)cc4c3)ccn2)ccc1C(N)=O` [Example 99, 4-(4-((3-chloroquinolin-6-yl)oxy)pyridin-2-yl)-2-methylbenzamide]: 6.00 to 7.00 and 138%.
As for `CCc1cc(-c2cc(Oc3ccc4ccncc4c3)ccn2)ccc1C(N)=O` [Example 73, 2-ethyl-4-(4-(162yridine162ine-7-yloxy)162yridine-2-yl)benzamide], the pEC50 under setting [1] was 6.00 to 7.00. For the same molecule, under setting [2], the maximum response (Emax) came to 66%.
For `Cc1cc(-c2cc(Oc3cc(F)c4ncccc4c3)ccn2)ccc1C(N)=O` [Example 98, 4-(4-((8-fluoroquinolin-6-yl)oxy)pyridin-2-yl)-2-methylbenzamide], the negative-log EC50 (pEC50) under setting [1] is 6.00 to 7.00. Also, the maximal response (Emax) under setting [2] was 120%.
In the case of `CCc1cc(-c2cc(Oc3cnc4c(C(F)(F)F)nn(C)c4c3)ccn2)ccc1C(N)=O` [Example 29, 2-ethyl-4-(4-((1-methyl-3-(trifluoromethyl)-1H-pyrazolo[4,3-b]pyridin-6-yl)oxy)pyridin-2-yl)benzamide], under setting [1], the pEC50 was 6.00 to 7.00. Further, under setting [2], the Emax was 84%.
The matching figures for `NC(=O)c1ccc(-c2cc(Oc3ccc4ccncc4c3)ccn2)cc1Cl` [Example 80, 2-chloro-4-(4-(isoquinolin-7-yloxy)pyridin-2-yl)benzamide]: 6.00 to 7.00 and 54%.
Turning to `CCc1cc(-c2cc(Oc3cnc4c(c3)c(C)nn4C)cc(N)n2)ccc1C(N)=O` [Example 22, 4-(6-amino-4-((1,3-dimethyl-1H-pyrazolo[3,4-b]pyridin-5-yl)oxy)pyridin-2-yl)-2-ethylbenzamide], the pEC50 under setting [1] is 6.00 to 7.00. The Emax under setting [2] was determined as 123%.
Turning to `Cc1cc(-c2cc(Oc3ccc4c(cnn4C)c3)ccn2)ccc1C(N)=O` [Example 5, 2-methyl-4-(4-((1-methyl-1H-indazol-5-yl)oxy)pyridin-2-yl)benzamide], the pEC50 under setting [1] was 6.00 to 7.00. Moreover, the Emax under setting [2] was determined as 76%.
The corresponding values for `Cc1cc(-c2cc(Oc3cc(F)c4ncc(F)cc4c3)ccn2)ccc1C(N)=O` [Example 119, 4-(4-((3,8-difluoroquinolin-6-yl)oxy)pyridin-2-yl)-2-methylbenzamide] are 6.00 to 7.00 and 120%.
The corresponding values for `Cc1nn(C)c2cc(Oc3ccnc(-c4ccc(C(N)=O)c(C(F)(F)F)c4)c3)cnc12` [Example 30, 4-(4-((1,3-dimethyl-1H-pyrazolo[4,3-b]pyridin-6-yl)oxy)pyridin-2-yl)-2-(trifluoromethyl)benzamide] are 5.70 to 6.00 and 87%.
The corresponding values for `CNC(=O)c1ccc(-c2cc(Oc3ccc4cnn(C)c4c3)ccn2)cc1C` [Example 62, N,2-dimethyl-4-(4-((1-methyl-1H-indazol-6-yl)oxy)pyridin-2-yl)benzamide] are 6.00 to 7.00 and 84%.
On to `CCc1cc(-c2cc(Oc3cnc4c(c3)c(C(F)(F)F)nn4C)ccn2)ccc1C(N)=O` [Example 56, 2-ethyl-4-(4-((1-methyl-3-(trifluoromethyl)-1H-pyrazolo[3,4-b]pyridin-5-yl)oxy)pyridin-2-yl)benzamide], for which the pEC50 under setting [1] was 7.00 to 7.60. Moreover, under setting [2], the Emax was 100%.
The corresponding values for `Cc1cc(-c2cccc(Oc3ccc4cnn(C)c4c3)n2)ccc1C(N)=O` [Example 9, 2-methyl-4-(6-((1-methyl-1H-indazol-6-yl)oxy)pyridin-2-yl)benzamide] are 5.70 to 6.00 and 91%.
The matching figures for `CCc1cc(-c2cc(Oc3ccc4c(c3)NCCO4)ccn2)ccc1C(N)=O` [Example 68, 4-(4-((3,4-dihydro-2H-benzo[b][1,4]oxazin-6-yl)oxy)pyridin-2-yl)-2-ethylbenzamide]: greater than 7.60 and 131%.
Turning to `CCc1cc(-c2cc(Oc3cnc4c(C)nn(C)c4c3)ccn2)ccc1C(N)=O` [Example 1, 4-(4-((1,3-dimethyl-1H-pyrazolo[4,3-b]pyridin-6-yl)oxy)pyridin-2-yl)-2-ethylbenzamide], the pEC50 runs as follows: (Flp-In-CHO cells expressing human GPR52, read-out: average EC50) 6.57; under setting [1], 6.00 to 7.00. Besides, the maximal effect (Emax) reads like this: under setting [2], 106%; (percentage of Emax of control compound) 106%.
For the molecule `CCc1cc(-c2cc(Oc3cnc4c(F)cc(F)cc4c3)ccn2)ccc1C(N)=O` [Example 117, 4-(4-((6,8-difluoroquinolin-3-yl)oxy)pyridin-2-yl)-2-ethylbenzamide], under setting [1], the pEC50 was 6.00 to 7.00. Also, the Emax under setting [2] amounted to 115%.
The corresponding values for `Cc1cc(-c2cc(Oc3ccc4cnn(C)c4c3)ccn2)ccc1C(N)=O` [Example 43, 2-methyl-4-(4-((1-methyl-1H-indazol-6-yl)oxy)pyridin-2-yl)benzamide] are 6.00 to 7.00 and 103%.
The corresponding values for `Cc1cc(-c2cncc(Oc3ccc4nn(C)cc4c3)n2)ccc1C(N)=O` [Example 10, 2-methyl-4-(6-((2-methyl-2H-indazol-5-yl)oxy)pyrazin-2-yl)benzamide] are 6.00 to 7.00 and 106%.
The corresponding values for `CCc1cc(-c2cc(Oc3ccc4ncccc4c3F)ccn2)ccc1C(N)=O` [Example 106, 2-ethyl-4-(4-((5-fluoroquinolin-6-yl)oxy)pyridin-2-yl)benzamide] are 6.00 to 7.00 and 100%.
As to `Cc1cc(-c2cc(Oc3ccc4occc4c3)ccn2)ccc1C(N)=O` [Example 83, 4-(4-(benzofuran-5-yloxy)pyridin-2-yl)-2-methylbenzamide], under setting [1], the pEC50 was 6.00 to 7.00. Also, the Emax under setting [2] is 153%.
The corresponding values for `Cc1cc(-c2cc(Oc3cnc4cc(F)c(F)cc4c3)ccn2)ccc1C(N)=O` [Example 114, 4-(4-((6,7-difluoroquinolin-3-yl)oxy)pyridin-2-yl)-2-methylbenzamide] are 7.00 to 7.60 and 50%.
The corresponding values for `NC(=O)c1ccc(-c2cc(Oc3ccc4ncccc4c3)ccn2)cc1Cl` [Example 76, 2-chloro-4-(4-(quinolin-6-yloxy)pyridin-2-yl)benzamide] are 6.00 to 7.00 and 91%.
The corresponding values for `CCc1cc(-c2cc(Oc3cnc4c(F)cccc4c3)ccn2)ccc1C(N)=O` [Example 102, 2-ethyl-4-(4-((8-fluoroquinolin-3-yl)oxy)pyridin-2-yl)benzamide] are 6.00 to 7.00 and 90%.
Take `Cc1cc(-c2cc(Oc3cnc4c(F)cccc4c3)ccn2)ccc1C(N)=O` [Example 103, 4-(4-((8-fluoroquinolin-3-yl)oxy)pyridin-2-yl)-2-methylbenzamide]: under setting [1], the negative-log EC50 (pEC50) was 6.00 to 7.00. Further, the Emax under setting [2] turned out to be 60%.
The corresponding values for `CCc1cc(-c2cc(Oc3cnc4c(c3)c(C(F)(F)F)nn4C)cc(N)n2)ccc1C(N)=O` [Example 24, 4-(6-amino-4-((1-methyl-3-(trifluoromethyl)-1H-pyrazolo[3,4-b]pyridin-5-yl)oxy)pyridin-2-yl)-2-ethylbenzamide] are 6.00 to 7.00 and 110%.
Turning to `Cc1cc(-c2cc(Oc3cnc4c(F)c(F)ccc4c3)ccn2)ccc1C(N)=O` [Example 116, 4-(4-((7,8-difluoroquinolin-3-yl)oxy)pyridin-2-yl)-2-methylbenzamide], under setting [1], the pEC50 was 7.00 to 7.60. Besides, the Emax under setting [2] was 62%.
As for `CCc1cc(-c2cc(Oc3ccc4cnn(C)c4c3)cc3nccn23)ccc1C(N)=O` [Example 26, 2-ethyl-4-(7-((1-methyl-1H-indazol-6-yl)oxy)imidazo[1,2-a]pyridin-5-yl)benzamide], the pEC50 under setting [1] is 7.00 to 7.60. Also, the Emax under setting [2] came to 75%.

A word on the pEC50: it is the negative decadic logarithm of the EC50, by convention in mol/L. The term Emax denotes the maximal effect, on the per cent scale that the assay sets.

The values above are taken from patent US20260167615A1, “COMPOUNDS AND COMPOSITIONS AS GPR52 MODULATORS” (Neurocrine Biosciences, Inc., priority 2022, published 2026).
